Laboratory results reported in ChEMBL document CHEMBL1151757, “Synthesis, radiosynthesis, and biological evaluation of fluorine-18-labeled 2beta-carbo(fluoroalkoxy)-3beta-(3'-((Z)-2-haloethenyl)phenyl)nortropanes: candidate radioligands for in vivo imaging of the serotonin transporter with positron emission tomography” (J Med Chem, 2008).

Assays:
[1] = Drug uptake in anesthetized cynomolgus monkey brain cerebellum after 35 mins postinjection; type: ADME, organism-based, Macaca fascicularis; conditions: in vivo
[2] = Drug uptake in anesthetized cynomolgus monkey brain frontal lobe after 0.5 mins postinjection; type: ADME, organism-based, Macaca fascicularis; conditions: in vivo
[3] = tested on: Medulla; experiment: Drug uptake in anesthetized cynomolgus monkey brain medulla after 45 mins postinjection; type: ADME, organism-based, Macaca fascicularis; conditions: in vivo, 0.75 h
[4] = tested on: Thalamus; experiment: Drug uptake in anesthetized cynomolgus monkey brain thalamus after 6.5 mins postinjection; type: ADME, organism-based, Macaca fascicularis; parameters: unit not given here; conditions: in vivo
[5] = tested on: Midbrain; experiment: Drug uptake in anesthetized cynomolgus monkey brain midbrain after 15.5 mins postinjection; type: ADME, organism-based, Macaca fascicularis; parameters: unit not given here; conditions: in vivo
[6] = tested on: Midbrain; experiment: Drug uptake in anesthetized cynomolgus monkey brain midbrain after 115 mins postinjection; type: ADME, organism-based, Macaca fascicularis; parameters: unit not given here; conditions: in vivo
[7] = tested on: Midbrain; experiment: Drug uptake in anesthetized cynomolgus monkey brain midbrain after 95 mins postinjection; type: ADME, organism-based, Macaca fascicularis; parameters: unit not given here; conditions: in vivo
[8] = tested on: Caudate; experiment: Drug uptake in anesthetized cynomolgus monkey brain caudate after 235 mins postinjection; type: ADME, organism-based, Macaca fascicularis, Caudate nucleus; conditions: in vivo
[9] = Drug uptake in anesthetized cynomolgus monkey brain cerebellum after 165 mins postinjection; type: ADME, organism-based, Macaca fascicularis; conditions: in vivo, 2.75 h
[10] = tested on: Caudate; experiment: Drug uptake in anesthetized cynomolgus monkey brain caudate after 15.5 mins postinjection; type: ADME, organism-based, Macaca fascicularis, Caudate nucleus; conditions: in vivo
[11] = Drug uptake in anesthetized cynomolgus monkey brain occipital lobe after 22.5 mins postinjection; type: ADME, organism-based, Macaca fascicularis; conditions: in vivo, 0.375 h
[12] = Ratio of drug uptake in frontal lobe to cerebellum in anesthetized cynomolgus monkey after 3.5 mins postinjection; type: ADME, organism-based, Macaca fascicularis; conditions: in vivo
[13] = tested on: Putamen; experiment: Drug uptake in anesthetized cynomolgus monkey brain putamen after 205 mins postinjection; type: ADME, organism-based, Macaca fascicularis; conditions: in vivo
[14] = Drug uptake in anesthetized cynomolgus monkey brain occipital lobe after 27.5 mins postinjection; type: ADME, organism-based, Macaca fascicularis; conditions: in vivo
[15] = tested on: Putamen; experiment: Drug uptake in anesthetized cynomolgus monkey brain putamen after 15.5 mins postinjection; type: ADME, organism-based, Macaca fascicularis; parameters: unit not given here; conditions: in vivo
[16] = tested on: Thalamus; experiment: Drug uptake in anesthetized cynomolgus monkey brain thalamus after 65 mins postinjection; type: ADME, organism-based, Macaca fascicularis; parameters: unit not given here; conditions: in vivo
[17] = Drug uptake in anesthetized cynomolgus monkey brain occipital lobe after 225 mins postinjection; type: ADME, organism-based, Macaca fascicularis; conditions: in vivo, 3.75 h
[18] = Drug uptake in anesthetized cynomolgus monkey brain occipital lobe after 45 mins postinjection; type: ADME, organism-based, Macaca fascicularis; conditions: in vivo, 0.75 h
[19] = tested on: Thalamus; experiment: Drug uptake in anesthetized cynomolgus monkey brain thalamus after 165 mins postinjection; type: ADME, organism-based, Macaca fascicularis; parameters: unit not given here; conditions: in vivo, 2.75 h
[20] = Drug uptake in anesthetized cynomolgus monkey brain frontal lobe after 235 mins postinjection; type: ADME, organism-based, Macaca fascicularis; conditions: in vivo
[21] = Drug uptake in anesthetized cynomolgus monkey brain frontal lobe after 175 mins postinjection; type: ADME, organism-based, Macaca fascicularis; conditions: in vivo
[22] = Ratio of drug uptake in caudate to cerebellum in anesthetized cynomolgus monkey after 55 mins postinjection; type: ADME, organism-based, Macaca fascicularis; conditions: in vivo
[23] = tested on: Medulla; experiment: Drug uptake in anesthetized cynomolgus monkey brain medulla after 95 mins postinjection; type: ADME, organism-based, Macaca fascicularis; conditions: in vivo
[24] = Ratio of drug uptake in occipital lobe to cerebellum in anesthetized cynomolgus monkey after 105 mins postinjection; type: ADME, organism-based, Macaca fascicularis; conditions: in vivo, 1.75 h
[25] = tested on: Caudate; experiment: Drug uptake in anesthetized cynomolgus monkey brain caudate after 145 mins postinjection; type: ADME, organism-based, Macaca fascicularis, Caudate nucleus; conditions: in vivo
[26] = tested on: Thalamus; experiment: Drug uptake in anesthetized cynomolgus monkey brain thalamus after 215 mins postinjection; type: ADME, organism-based, Macaca fascicularis; parameters: unit not given here; conditions: in vivo
[27] = tested on: Midbrain; experiment: Drug uptake in anesthetized cynomolgus monkey brain midbrain after 215 mins postinjection; type: ADME, organism-based, Macaca fascicularis; conditions: in vivo
[28] = Ratio of drug uptake in occipital lobe to cerebellum in anesthetized cynomolgus monkey after 235 mins postinjection; type: ADME, organism-based, Macaca fascicularis; conditions: in vivo
[29] = tested on: Putamen; experiment: Drug uptake in anesthetized cynomolgus monkey brain putamen after 3.5 mins postinjection; type: ADME, organism-based, Macaca fascicularis; conditions: in vivo
[30] = tested on: Putamen; experiment: Drug uptake in anesthetized cynomolgus monkey brain putamen after 85 mins postinjection; type: ADME, organism-based, Macaca fascicularis; parameters: unit not given here; conditions: in vivo
[31] = Ratio of drug uptake in putamen to cerebellum in anesthetized cynomolgus monkey after 165 mins postinjection; type: ADME, organism-based, Macaca fascicularis; conditions: in vivo, 2.75 h
[32] = Ratio of drug uptake in midbrain to cerebellum in anesthetized cynomolgus monkey after 215 mins postinjection; type: ADME, organism-based, Macaca fascicularis; conditions: in vivo
[33] = tested on: Pons; experiment: Drug uptake in anesthetized cynomolgus monkey brain pons after 6.5 mins postinjection; type: ADME, organism-based, Macaca fascicularis; conditions: in vivo
[34] = Ratio of drug uptake in putamen to cerebellum in anesthetized cynomolgus monkey after 0.5 mins postinjection; type: ADME, organism-based, Macaca fascicularis; conditions: in vivo

Compound: O=C(OCCC[18F])C1C2CCC(CC1c1cccc(/C=C\I)c1)N2 (centres undefined)
- Drug uptake [1]: 4.74
- Drug uptake [2]: 0
- Drug uptake [3]: 5.13
- Drug uptake [4]: 3.06
- Drug uptake [5]: 4.45
- Drug uptake [6]: 4.76
- Drug uptake [7]: 4.77
- Drug uptake [8]: 2.41
- Drug uptake [9]: 2.37
- Drug uptake [10]: 3.34
- Drug uptake [11]: 3.88
- Ratio [12]: 0.4
- Drug uptake [13]: 3.31
- Drug uptake [14]: 4
- Drug uptake [15]: 4.27
- Drug uptake [16]: 4.79
- Drug uptake [17]: 2.09
- Drug uptake [18]: 4.09
- Drug uptake [19]: 3.67
- Drug uptake [20]: 1.78
- Drug uptake [21]: 2.05
- Ratio [22]: 0.9
- Drug uptake [23]: 4.93
- Ratio [24]: 1
- Drug uptake [25]: 3.24
- Drug uptake [26]: 3.02
- Drug uptake [27]: 3.69
- Ratio [28]: 1
- Drug uptake [29]: 1.59
- Drug uptake [30]: 4.82
- Ratio [31]: 1.6
- Ratio [32]: 1.8
- Drug uptake [33]: 2.85
- Ratio [34]: 1.5
